These results are taken from ChEMBL document CHEMBL1150263, “Combining docking, molecular dynamics and the linear interaction energy method to predict binding modes and affinities for non-nucleoside inhibitors to HIV-1 reverse transcriptase” (J Med Chem, 2008).

In general, IC50 refers to the concentration that gives 50% inhibition.

Structures are written as SMILES.

The experiment deals with Human immunodeficiency virus type 1 reverse transcriptase (Human immunodeficiency virus 1, UniProt Q72547). Description: Inhibition of HIV1 reverse transcriptase.

`CCCc1c(C)[nH]c(=O)c(N(C)C)c1Cc1cc(C)cc(C)c1` gave an IC50 of 50 nM.

`CCc1[nH]c(=O)c(N(C)C)c(Cc2cc(C)cc(C)c2)c1C` showed an IC50 of 10 nM.

Turning to `Cc1cc(C)cc(Cc2cc(C)[nH]c(=O)c2N(C)C)c1`, the half-inhibitory concentration (IC50) came to 398 nM.

The compound `Cc1cc(C)cc(Cc2c(CC(C)C)c(C)[nH]c(=O)c2N(C)C)c1` gave an IC50 of 50 nM.

`CCc1c(C)[nH]c(=O)c(N(C)C)c1Cc1cc(C)cc(C)c1` yielded an IC50 of 8 nM.

`Cc1cc(C)cc(Cc2c(C)c(C)[nH]c(=O)c2N(C)C)c1` came in with an IC50 of 5 nM.

On to `Cc1cc(C)cc(Cc2c(C)c(C(C)C)[nH]c(=O)c2N(C)C)c1`, for which the IC50 turned out to be 794 nM.

Take `Cc1cc(C)cc(Cc2cc[nH]c(=O)c2N(C)C)c1`: the IC50 was found to be 7940 nM. Against the preceding compound, the IC50 is about 10-fold higher.

On to `CCc1c(C)[nH]c(=O)c(NNC(=S)Nc2ccccc2)c1Cc1cccc(C)c1`, for which it took 3160 nM to reach half-maximal inhibition (IC50).

Compound `CCc1c(C)[nH]c(=O)c(NNC(N)=S)c1Cc1cccc(C)c1` yielded a half-maximal inhibitory concentration (IC50) of 316 nM.

As to `CCC1C(Cc2cccc(C)c2)=C(N(C)CCO)C(=O)NC1C` (stereo not drawn), the IC50 stood at 5 nM. Against the preceding compound, the IC50 is about 63-fold lower.

`Cc1cc(C)cc(Cc2c3c([nH]c(=O)c2N(C)C)CCCC3)c1` came in with an IC50 of 10 nM.

Consider `CCNC(=S)NNc1c(Cc2cccc(C)c2)c(CC)c(C)[nH]c1=O`, for which the IC50 was 25100 nM.
